The molecules below were run against T1, androgen receptor (AR) (Homo sapiens, UniProt P10275) (assay: Degradation of androgen receptor (AR) protein in VCaP cells by Western blot). Details: percentage of degraded AR at 100 nM, VCaP cells, 16 h.
T1 sequence (P10275 1-920): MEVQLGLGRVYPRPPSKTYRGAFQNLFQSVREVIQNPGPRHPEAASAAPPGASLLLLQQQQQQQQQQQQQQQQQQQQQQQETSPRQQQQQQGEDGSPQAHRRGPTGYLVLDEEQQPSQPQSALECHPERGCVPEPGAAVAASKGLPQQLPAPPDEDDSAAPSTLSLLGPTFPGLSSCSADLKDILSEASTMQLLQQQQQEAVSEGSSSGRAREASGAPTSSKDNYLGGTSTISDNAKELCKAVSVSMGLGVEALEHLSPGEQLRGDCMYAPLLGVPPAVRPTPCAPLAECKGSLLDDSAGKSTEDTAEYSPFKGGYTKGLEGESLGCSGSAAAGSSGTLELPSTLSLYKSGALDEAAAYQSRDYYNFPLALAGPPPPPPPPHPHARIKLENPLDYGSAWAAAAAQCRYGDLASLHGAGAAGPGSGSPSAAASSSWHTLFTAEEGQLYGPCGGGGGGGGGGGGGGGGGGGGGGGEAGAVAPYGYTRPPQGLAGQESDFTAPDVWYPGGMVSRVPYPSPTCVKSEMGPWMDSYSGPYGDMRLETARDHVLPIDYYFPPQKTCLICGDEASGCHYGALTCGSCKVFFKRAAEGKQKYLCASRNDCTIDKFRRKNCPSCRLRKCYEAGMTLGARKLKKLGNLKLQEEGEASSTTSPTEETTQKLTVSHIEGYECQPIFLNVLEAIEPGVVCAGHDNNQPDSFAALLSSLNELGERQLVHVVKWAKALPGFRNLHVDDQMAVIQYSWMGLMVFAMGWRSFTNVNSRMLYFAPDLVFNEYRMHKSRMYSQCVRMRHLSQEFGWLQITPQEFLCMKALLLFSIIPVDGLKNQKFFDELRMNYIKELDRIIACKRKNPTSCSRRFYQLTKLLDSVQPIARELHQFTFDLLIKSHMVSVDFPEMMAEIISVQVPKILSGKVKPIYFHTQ
Assay type: cell-based
In short: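 AR and β-actin levels were read by Western blot with ECL detection, loading 30 μg lysate protein per well. Before lysis, VCaP cells seeded at 5×10^5/well and grown overnight were exposed to compound for 16 h, two wells per concentration, keeping DMSO at 0.1%.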
With `N#Cc1ccc(O[C@H]2CC[C@H](NC(=O)c3cnc(N4CCC(CN5CCC6(CC5)CN(c5cc7c(cc5F)C(=O)N(C5CCC(=O)NC5=O)C7=O)C6)CC4)nn3)CC2)cc1Cl` (some centres unmarked) [Compound 158] the inhibition at 0.1 µM was over 80%.
Work on `N#Cc1ccc(O[C@H]2CC[C@H](NC(=O)c3cnc(N4CCN([C@@H]5C[C@@H]6CN(c7cc8c(cc7F)C(=O)N(C7CCC(=O)NC7=O)C8=O)C[C@@H]6C5)CC4)nc3)CC2)cc1Cl` (stereo partly drawn) [Compound 299, N-((1r,4r)-4-(3-chloro-4-cyanophenoxy)cyclohexyl)-2-(4-((3aR,5R,6aS)-2-(2-(2,6-dioxopiperidin-3-yl)-6-fluoro-1,3-dioxoisoindolin-5-yl)octahydrocyclopenta[c]pyrrol-5-yl)piperazin-1-yl)pyrimidine-5-formamide] yielded an inhibition at 0.1 µM of under 25%.
Work on `N#Cc1ccc(O[C@H]2CC[C@H](NC(=O)c3cnc(N4CCN([C@@H]5C[C@@H]6CN(c7ccc8c(c7)C(=O)N(C7CCC(=O)NC7=O)C8=O)C[C@@H]6C5)CC4)nc3)CC2)cc1Cl` (stereo partly drawn) [Compound 300, N-((1r,4r)-4-(3-chloro-4-cyanophenoxy)cyclohexyl)-2-(4-((3aR,5R,6aS)-2-(2-(2,6-dioxopiperidin-3-yl)-1,3-dioxoisoindolin-5-yl)octahydrocyclopenta[c]pyrrol-5-yl)piperazin-1-yl)pyrimidine-5-carboxamide] yielded an inhibition at 0.1 µM of under 25%.
For `N#Cc1ccc(O[C@H]2CC[C@H](NC(=O)c3cnc(N4CCN(C(=O)O[C@H]5C[C@@H]6CN(c7ccc8c(c7)C(=O)N(C7CCC(=O)NC7=O)C8=O)C[C@@H]6C5)CC4)cn3)CC2)cc1Cl` (some centres unmarked) [Compound 301], the inhibition at 0.1 µM was 50 to 79%.
With `N#Cc1ccc(O[C@H]2CC[C@H](NC(=O)c3ccc(N4CCC(NC5CCN(c6ccc7c(c6)C(=O)N(C6CCC(=O)NC6=O)C7=O)CC5)CC4)cc3)CC2)cc1Cl` (some centres unmarked) [Compound 302, N-((1r,4r)-4-(3-chloro-4-cyanophenoxy)cyclohexyl)-4-(4-((1-(2-(2,6-dioxopiperidin-3-yl)-1,3-dioxoisoindolin-5-yl)piperidine-4-yl)amino)piperidin-1-yl)benzamide] the inhibition at 0.1 µM was under 25%.
`N#Cc1ccc(O[C@H]2C[C@H]3C[C@@H](NC(=O)c4cnc(N5CCC(CN6CCN(c7ccc8c(c7)C(=O)N(C7CCC(=O)NC7=O)C8=O)CC6)CC5)cn4)C[C@H]3C2)cc1Cl` (stereo partly drawn) [Compound 303, N-((2s,3aR,5R,6aS)-5-(3-chloro-4-cyanophenoxy)octahydropenten-2-yl)-5-(4-((4-(2-(2,6-dioxopiperidin-3-yl)-1,3-dioxoisoindolin-5-yl)piperazin-1-yl)methyl)piperidin-1-yl)piperazine-2-carboxamide] was tested, and the inhibition at 0.1 µM was under 25%.
`CC1(C)[C@H](Oc2ccc(C#N)c(Cl)c2)C(C)(C)[C@H]1N1Cc2nc(C#CC3CCN(C4CCN(c5ccc6c(c5)C(=O)N(C5CCC(=O)NC5=O)C6=O)CC4)CC3)ccc2C1=O` (some centres unmarked) [Compound 315, 2-chloro-4-((1r,3r)-3-(2-((1′-(2-(2,6-dioxopiperidin-3-yl)-1,3-dioxoisoindolin-5-yl)-[1,4′-dipiperidine]4-yl)ethynyl)-5-oxo-5,7-dihydro-6H-pyrrolo[3,4-b]pyridin-6-yl)-2,2,4,4-tetramethylcyclobutoxy)benzonitrile] showed an inhibition at 0.1 µM of under 25%.
Work on `CC1(C)[C@H](Oc2ccc(C#N)c(Cl)c2)C(C)(C)[C@H]1N1Cc2nc(C#CC3CCN(C4CCN(c5cc6c(cc5F)C(=O)N(C5CCC(=O)NC5=O)C6=O)CC4)CC3)ccc2C1=O` (some centres unmarked) [Compound 316] yielded an inhibition at 0.1 µM of 25 to 49%.
`CC1(C)[C@H](Oc2ccc(C#N)c(Cl)c2)C(C)(C)[C@H]1N1Cc2nc(C#CC3CCN(C4CN(c5ccc6c(c5)C(=O)N(C5CCC(=O)NC5=O)C6=O)C4)CC3)ccc2C1=O` (some centres unmarked) [Compound 317, 2-Chloro-4-((1r,3r)-3-(2-((1-(1-(2-(2,6-dioxopiperidin-3-yl)-6-fluoro-1,3-dioxoisoindolin-5-yl)azitidin-3-yl)piperidine-4-yl)ethynyl)-5-oxo-5H-pyrrolino [3,4-b]pyridin-6(7H)-yl)-2,2,4,4-tetramethylcyclobutoxy)benzonitrile] gave an inhibition at 0.1 µM of 50 to 79%.
With `CC1(C)[C@H](Oc2ccc(C#N)c(Cl)c2)C(C)(C)[C@H]1N1Cc2nc(C#CC3CCN(C4CN(c5cc6c(cc5F)C(=O)N(C5CCC(=O)NC5=O)C6=O)C4)CC3)ccc2C1=O` (some centres unmarked) [Compound 318, 2-Chloro-4-((1r,3r)-3-(2-((1-(1-(2-(2,6-dioxopiperidin-3-yl)-6-fluoro-1,3-dioxoisoindolin-5-yl)azitidin-3-yl)piperidine-4-yl)ethynyl)-5-oxo-5H-pyrrolino [3,4-b]pyridin-6(7H)-yl)-2,2,4,4-tetramethylcyclobutoxy)benzonitrile] the inhibition at 0.1 µM was 50 to 79%.
`CC1(C)[C@H](Oc2ccc(C#N)c(Cl)c2)C(C)(C)[C@H]1N1Cc2nc(C#CC3CN(C4CCN(c5ccc6c(c5)C(=O)N(C5CCC(=O)NC5=O)C6=O)CC4)C3)ccc2C1=O` (some centres unmarked) [Compound 319, 2-Chloro-4-((1r,3r)-3-(2-((1-(1-(2-(2,6-dioxopiperidin-3-yl)-1,3-dioxoisoindolin-5-yl)piperidine-4-yl)azelaic acid-3-yl)ethynyl)-5-oxo-5H-pyrrolo[3,4-b]pyridin-6(7H)-yl)-2,2,4,4-tetramethylcyclobutoxy)benzonitrile] gave an inhibition at 0.1 µM of under 25%.
Molecule `CC1(C)[C@H](Oc2ccc(C#N)c(Cl)c2)C(C)(C)[C@H]1N1Cc2nc(C#CC3CN(C4CCN(c5cc6c(cc5F)C(=O)N(C5CCC(=O)NC5=O)C6=O)CC4)C3)ccc2C1=O` (some centres unmarked) [Compound 320, 2-Chloro-4-((1r,3r)-3-(2-((1-(1-(2-(2,6-dioxopiperidin-3-yl)-6-fluoro-1,3-dioxoisoindolin-5-yl)piperidine-4-yl)azelaic acid-3-yl)ethynyl)-5-oxo-5H-pyrrolino[3,4-b]pyridin-6(7H)-yl)-2,2,4,4-tetramethylcyclobutoxy)benzonitrile] has an inhibition at 0.1 µM of 50 to 79%.
`N#Cc1ccc(O[C@H]2CC[C@H](N3Cc4nc(C#CC5CCN(C6CCN(c7ccc8c(c7)C(=O)N(C7CCC(=O)NC7=O)C8=O)CC6)CC5)ccc4C3=O)CC2)cc1Cl` (some centres unmarked) [Compound 323] gave an inhibition at 0.1 µM of under 25%.
Molecule `N#Cc1ccc(O[C@H]2CC[C@H](N3Cc4nc(C#CC5CCN(C6CCN(c7cc8c(cc7F)C(=O)N(C7CCC(=O)NC7=O)C8=O)CC6)CC5)ccc4C3=O)CC2)cc1Cl` (some centres unmarked) [Compound 324, 2-Chloro-4-((1r,4r)-4-(2-((1′-(2,6-dioxopiperidin-3-yl)-6-fluoro-1,3-dioxoisoindolin-5-yl)-1,4′-dipiperidine-4-yl)ethynyl)-5-oxo-5H-pyrrolo[3,4-b]pyridin-6(7H)-cyclohexaneoxy)benzonitrile] has an inhibition at 0.1 µM of 25 to 49%.
For `CC1(C)[C@H](Oc2ccc(C#N)c(Cl)c2)C(C)(C)[C@H]1N1Cc2nc(C#C[C@H]3CC[C@H](N4CCN(c5cc6c(cc5F)C(=O)N(C5CCC(=O)NC5=O)C6=O)CC4)CC3)ccc2C1=O` (some centres unmarked) [Compound 326], the inhibition at 0.1 µM was 50 to 79%.
With `CC1(C)[C@H](Oc2ccc(C#N)c(Cl)c2)C(C)(C)[C@H]1N1Cc2nc(C#CC3CC(NC4CCN(c5ccc6c(c5)C(=O)N(C5CCC(=O)NC5=O)C6=O)CC4)C3)ccc2C1=O` (some centres unmarked) [Compound 327, 2-Chloro-4-((1r,3r)-3-(2-((3-(1-(2-(2,6-dioxopiperidin-3-yl)-1,3-dioxoisoindolin-5-yl)piperidine-4-ylamino)cyclobutyl)ethynyl)-5-oxo-5,7-dihydro-pyrrolo[3,4-b]pyridin-6-yl)-2,2,4,4-tetramethylcyclobutoxy)benzonitrile] the inhibition at 0.1 µM was 50 to 79%.
Molecule `CC1(C)[C@H](Oc2ccc(C#N)c(Cl)c2)C(C)(C)[C@H]1N1Cc2nc(C#CC3CC(NC4CCN(c5cc6c(cc5F)C(=O)N(C5CCC(=O)NC5=O)C6=O)CC4)C3)ccc2C1=O` (some centres unmarked) [Compound 329] has an inhibition at 0.1 µM of 50 to 79%.
With `CN(C1CCN(c2ccc3c(c2)C(=O)N(C2CCC(=O)NC2=O)C3=O)CC1)C1CC(C#Cc2ccc3c(n2)CN([C@H]2C(C)(C)[C@H](Oc4ccc(C#N)c(Cl)c4)C2(C)C)C3=O)C1` (some centres unmarked) [Compound 331] the inhibition at 0.1 µM was 25 to 49%.
With `CN(C1CCN(c2cc3c(cc2F)C(=O)N(C2CCC(=O)NC2=O)C3=O)CC1)C1CC(C#Cc2ccc3c(n2)CN([C@H]2C(C)(C)[C@H](Oc4ccc(C#N)c(Cl)c4)C2(C)C)C3=O)C1` (some centres unmarked) [Compound 332] the inhibition at 0.1 µM was 50 to 79%.
`CC1(C)[C@H](Oc2ccc(C#N)c(Cl)c2)C(C)(C)[C@H]1N1Cc2nc(C#CC3CCN(CC4CCN(c5cc6c(cc5F)C(=O)N(C5CCC(=O)NC5=O)C6=O)CC4)CC3)ccc2C1=O` (some centres unmarked) [Compound 333] was tested, and the inhibition at 0.1 µM was 50 to 79%.
`CC1(C)[C@H](Oc2ccc(C#N)c(Cl)c2)C(C)(C)[C@H]1N1Cc2nc(C#CC3CCN(CC4CN(c5cc6c(cc5F)C(=O)N(C5CCC(=O)NC5=O)C6=O)C4)CC3)ccc2C1=O` (some centres unmarked) [Compound 334] gave an inhibition at 0.1 µM of over 80%.

Each molecule was assayed against T1, androgen receptor (AR) (assay: Degradation of androgen receptor (AR) protein in VCaP cells by ELISA). Details: AR degradation, VCaP cells, 16 h, ELISA, Table 3-2; read-out: DC50.
Assay type: cell-based
For `N#Cc1ccc(O[C@H]2CC[C@H](NC(=O)c3cnc(N4CCC(CN5CCC6(CC5)CN(c5cc7c(cc5F)C(=O)N(C5CCC(=O)NC5=O)C7=O)C6)CC4)nn3)CC2)cc1Cl` (some centres unmarked) [Compound 158], the DC50 was under 10 nM.

Same assay, conditions: VCaP
In the case of `N#Cc1ccc(O[C@H]2CC[C@H](NC(=O)c3cnc(N4CCC(CN5CCC6(CC5)CN(c5cc7c(cc5F)C(=O)N(C5CCC(=O)NC5=O)C7=O)C6)CC4)nn3)CC2)cc1Cl` (some centres unmarked) [Compound 158], the Dmax is reported as over 80%.

From patent US20230091225A1, “Bifunctional chimeric heterocyclic compounds for targeted degradation of androgen receptors and use thereof” (HINOVA PHARMACEUTICALS INC., priority 2019, published 2023)
